According to patent US5866540A, “Cyclic adhesion inhibitors” (Merck Patent Gesellschaft mit Beschrankter Haftung, priority 1995, dated 1999):
Where a SMILES comes first, the peptide text is derived from it. [ ]: non-standard residue; d: D form.

Key:
αvβ3 = αvβ3 (Homo sapiens, UniProt P05106+P06756); experiment: Solid-phase receptor binding ELISA: competition with biotinylated fibrinogen on coated integrin receptor; settings: ligand biotinylated fibrinogen 1 μg/ml; receptor coated at 1 μg/ml; 3 h at 30° C.; triplicates
Procedure: (§1) The effect was found by using the method of J. W. Smith, Z. M. Ruggei, T. J. Kunicki and D. A. Cheesh descibed in J. Biol. Chem. 265, 12 267-12 271 (1990).
(§2) Details of the method are as follows:
(§3) A ninety six well untreated flat bottom plate was coated with 100 μl/well of 1 μg/ml receptor (αIIβe; αVβ3) in coating buffer and incubated on a shaker at 4° C. overnight. The plate was washed 1× with binding buffer and then blocked with blocking buffer (100 μl/well for two hours at 30° C. After an additional washing with binding buffer, the biotinylated ligand and the competitor were added.
(§4) The ligand fibrinogen was used at a final concentration of 1 μg/ml. The competitor was added at increasing concentrations. Both ligand and competitor were added in volume of 50 μl/well at 2× of the final concentration diluted in binding buffer.
(§5) The plate was covered and incubated for three hours at 30° C. To remove unbound material the plate was washed 3× with binding buffer 100 μl/well.
(§6) Goat anti biotin antibody alkaline phosphatase conjugate (1:2000 dilution) in binding buffer was added (100 μl/well) and the plate was incubated for one hour at 30° C.
(§7) The plate was washed 3× with binding buffer, the substrate solution was added and developed in the dark at room temperature for 1-5 minutes.
(§8) The reaction was stopped by addition of 100 μl/well of 0.4M NaOH and read in the ELISA reader at 405 nm.
(§9) All points were run in triplicates.

αIIbβ3 = αIIbβ3 (Homo sapiens, UniProt P05106+P08514); experiment: as above; settings: ligand biotinylated fibrinogen 1 μg/ml; receptor coated at 1 μg/ml; 3 h at 30° C.; triplicates
Procedure: as §1, §2, §3, §4, §5, §6, §7, §8, §9

Row | IC50 (αvβ3) [µM] | IC50 (αIIbβ3) [µM] | SMILES
1 | 0.37 | 0.74 | C[C@@H]1NC(=O)[C@H]2CCCN2C(=O)[C@H](Cc2ccccc2)NC(=O)[C@H](CC(=O)O)NC(=O)CNC(=O)[C@H](CCCNC(=N)N)NC1=O [cyclo(--Arg--Gly--Asp--Phe--D--Pro--Ala), cyclo(-Arg-Gly-Asp-Phe-D-Pro-Ala)] (cyclo(RGDF[dP]A))
2 | 0.77 | > 100 | CC(C)[C@@H]1NC(=O)[C@@H](Cc2ccccc2)NC(=O)[C@H](CC(=O)O)NC(=O)[C@H](C)NC(=O)[C@H](CCCN=C(N)N)NC1=O [cyclo(--Arg--Ala--Asp--D--Phe--Val), cyclo(-Arg-Ala-Asp-D-Phe-Val)] (cyclo(AD[dF]VR))
3 | 0.54 | 0.06 | CC(C)C[C@@H]1NC(=O)[C@@H](Cc2ccccc2)NC(=O)[C@H](CC(=O)O)NC(=O)CNC(=O)[C@H](CCCNC(=N)N)NC(=O)CNC1=O [cyclo(--Arg--Gly--Asp--D--Phe--Leu--Gly), cyclo(-Arg-Gly-Asp-D-Phe-Leu-Gly)] (cyclo(GRGD[dF]L))
4 | 1.52 | 20.5 | CC(C)[C@@H]1NC(=O)[C@H](Cc2ccccc2)NC(=O)[C@H](CC(=O)O)NC(=O)CNC(=O)[C@@H](CCCNC(=N)N)NC(=O)CNC1=O [cyclo(--D--Arg--Gly--Asp--Phe--Val--Gly), cyclo(-D-Arg-Gly-Asp-Phe-Val-Gly)] (cyclo(G[dR]GDFV))
5 | 1.1 | 0.76 | CC(C)C[C@@H]1NC(=O)[C@@H](Cc2ccccc2)NC(=O)[C@H](CC(=O)O)NC(=O)CNC(=O)[C@H](CCCNC(=N)N)NC(=O)[C@H](C)NC1=O [cyclo(--Arg--Gly--Asp--D--Phe--Leu--Ala), cyclo(-Arg-Gly-Asp-D-Phe-Leu-Ala)] (cyclo(ARGD[dF]L))
6 | 1.06 | 1.5 | N=C(N)NCCC[C@@H]1NC(=O)CNC(=O)[C@H]2CCCN2C(=O)[C@H](Cc2ccccc2)NC(=O)[C@H](CC(=O)O)NC(=O)CNC1=O [cyclo(--Arg--Gly--Asp--Phe--D--Pro--Gly)] (cyclo(RGDF[dP]G))
7 | 52 | > 100 | CC(C)[C@@H]1NC(=O)[C@H](Cc2ccccc2)NC(=O)[C@H](CC(=O)O)NC(=O)[C@@H](C)NC(=O)[C@H](CCCNC(=N)N)NC1=O [cyclo(--Arg--D--Ala--Asp--Phe--Val), cyclo(-Arg-D-Ala-Asp-Phe-Val)] (cyclo(R[dA]DFV))
8 | 0.48 | 0.62 | C[C@@H]1NC(=O)[C@@H]2CCCN2C(=O)[C@H](Cc2ccccc2)NC(=O)[C@H](CC(=O)O)NC(=O)CNC(=O)[C@H](CCCNC(=N)N)NC1=O [cyclo(--Arg--Gly--Asp--Phe--Pro--Ala), cyclo(-Arg-Gly-Asp-Phe-Pro-Ala)] (cyclo(RGDFPA))
9 | 0.62 | 0.13 | CC(C)[C@@H]1NC(=O)[C@@H](Cc2ccccc2)NC(=O)[C@H](CC(=O)O)NC(=O)CNC(=O)[C@H](CCCNC(=N)N)NC(=O)CNC1=O [cyclo(--Arg--Gly--Asp--D--Phe--Val--Gly), cyclo(-Arg-Gly-Asp-D-Phe-Val-Gly)] (cyclo(RGD[dF]VG))
10 | 0.31 | 0.76 | CC(C)C[C@@H]1NC(=O)[C@H](Cc2ccccc2)NC(=O)[C@H](CC(=O)O)NC(=O)CNC(=O)[C@H](CCCNC(=N)N)NC(=O)[C@@H](C)NC1=O [cyclo(--Arg--Gly--Asp--Phe--Leu--D--Ala), cyclo(-Arg-Gly-Asp-Phe-Leu-D-Ala)] (cyclo(RGDFL[dA]))
11 | 0.16 | 1.53 | N=C(N)NCCC[C@@H]1NC(=O)CNC(=O)[C@@H]2CCCN2C(=O)[C@H](Cc2ccccc2)NC(=O)[C@H](CC(=O)O)NC(=O)CNC1=O [cyclo(--Arg--Gly--Asp--Phe--Pro--Gly), cyclo(-Arg-Gly-Asp-Phe-Pro-Gly)] (cyclo(RGDFPG))
12 | 0.25 | 1.5 | CC(C)[C@@H]1NC(=O)[C@H](Cc2ccccc2)NC(=O)[C@H](CC(=O)O)NC(=O)CNC(=O)[C@H](CCCNC(=N)N)NC(=O)[C@@H](C)NC1=O [cyclo(--Arg--Gly--Asp--Phe--Val--D--Ala), cyclo(-Arg-Gly-Asp-Phe-Val-D-Ala)] (cyclo(RGDFV[dA]))
13 | 0.9 | 0.32 | CC(C)[C@@H]1NC(=O)[C@@H](Cc2ccccc2)NC(=O)[C@H](CC(=O)O)NC(=O)CNC(=O)[C@H](CCCNC(=N)N)NC(=O)[C@H](C)NC1=O [cyclo(--Arg--Gly--Asp--D--Phe--Val--Ala), cyclo(-Arg-Gly-Asp-D-Phe-Val-Ala)] (cyclo(RGD[dF]VA))
14 | 4.5 | 22 | CC(C)[C@@H]1NC(=O)[C@H](Cc2ccccc2)NC(=O)[C@H](CC(=O)O)NC(=O)CNC(=O)[C@@H](CCCNC(=N)N)NC(=O)[C@H](C)NC1=O [cyclo(--D--Arg--Gly--Asp--Phe--Val--Ala), cyclo(-D-Arg-Gly-Asp-Phe-Val-Ala)] (cyclo([dR]GDFVA))
